In paper PMC9127750, “Structure-based design of CDC42 effector interaction inhibitors for the treatment of cancer” (Cell reports, 2022):
“And” between values parts separate entries of the source, which are not always exact repeats. Equal values may be shown once.

System: WM3248 melanoma cells, 486 antibodies
Test: Reverse phase protein arrays (RPPA)
Type: cell-based, Human
Source text: Pellets were snap frozen in liquid nitrogen and shipped to MD Anderson Cancer Center core RPPA facility for RPPA analysis (Table S5). Three biological replicates for each sample were generated.
Nomenclatures on the RPPA heatmaps: name_of_antibody.species_of_antibody.status_of_antibody. V - antibody validated; C - validation of antibody in progress; Q - antibody nonspecific; E – under evaluation; antibodies raised in M - mouse, G - goat, R - rabbit, or T - rat.

CN(C)c1cccc(Nc2cc(-c3ccccc3)nc(C3CCNCC3)n2)c1 [ARN22089, N1,N1-dimethyl-N3-(6-phenyl-2-(piperidin-4-yl)pyrimidin-4-yl)benzene-1,3-diamine]
Cyclin.D3.M.V normalized signal (Norm_5 replicates): 0.934 and 0.919 and 0.861
Cyclin.E1.R.V normalized signal (Norm_5 replicates): 0.930 and 0.904 and 0.974
Cyclophilin.F.M.V normalized signal (Norm_5 replicates): 0.842 and 0.856
D.a.Tubulin.R.V normalized signal (Norm_5 replicates): 1.019 and 1.128
DAPK1_pS308.M.C normalized signal (Norm_5 replicates): 1.353 and 1.627 and 0.788
DAPK2.R.C normalized signal (Norm_5 replicates): 1.191 and 1.026
DDB.1.R.V normalized signal (Norm_5 replicates): 1.062 and 0.816 and 1.300
DDR1.R.V normalized signal (Norm_5 replicates): 0.866 and 0.933 and 1.046
DDR1_pY513.R.C normalized signal (Norm_5 replicates): 0.890 and 1.005 and 1.047
DJ1.R.V normalized signal (Norm_5 replicates): 1.019 and 1.054
DM.Histone.H3.R.V normalized signal (Norm_5 replicates): 0.978 and 1.119 and 1.017
DM.K9.Histone.H3.M.V normalized signal (Norm_5 replicates): 0.882 and 0.936 and 0.982
DNA.Ligase.IV.R.C normalized signal (Norm_5 replicates): 1.083 and 0.953
DNA_POLG.R.V normalized signal (Norm_5 replicates): 1.009 and 1.004
c.Jun_pS73.R.V normalized signal (Norm_5 replicates): 0.798 and 0.640 and 0.915
c.Kit.R.V normalized signal (Norm_5 replicates): 1.128 and 0.954
c.Met_pY1234_Y1235.R.V normalized signal (Norm_5 replicates): 0.983 and 1.008 and 1.024
c.Myc.R.C normalized signal (Norm_5 replicates): 0.935 and 1.002
cGAS.R.V normalized signal (Norm_5 replicates): 0.859 and 0.966 and 1.027
cdc2_pY15.R.C normalized signal (Norm_5 replicates): 1.026 and 1.124
cdc25C.R.V normalized signal (Norm_5 replicates): 0.919 and 0.928 and 0.857
MYH11.R.C Average (Norm_10, normalized to Norm_0): 1.438
Myosin.IIa.R.C Average (Norm_10, normalized to Norm_0): 1.143
Myosin.IIa_pS1943.R.V Average (Norm_10, normalized to Norm_0): 1.250
Myt1.R.C Average (Norm_10, normalized to Norm_0): 0.974
N.Cadherin.R.V Average (Norm_10, normalized to Norm_0): 1.013
N.Ras.M.V Average (Norm_10, normalized to Norm_0): 0.937
NAPSIN.A.R.C Average (Norm_10, normalized to Norm_0): 1.005
NDRG1_pT346.R.V Average (Norm_10, normalized to Norm_0): 1.345
NDUFB4.R.V Average (Norm_10, normalized to Norm_0): 1.030
NRF2.R.C Average (Norm_10, normalized to Norm_0): 0.980
Notch1.R.V Average (Norm_10, normalized to Norm_0): 0.957
Notch1.cleaved.R.V Average (Norm_10, normalized to Norm_0): 0.977
Notch3.R.C Average (Norm_10, normalized to Norm_0): 1.054
Oct.4.R.C Average (Norm_10, normalized to Norm_0): 1.008
P.Cadherin.R.C Average (Norm_10, normalized to Norm_0): 1.101
PAI.1.M.V Average (Norm_10, normalized to Norm_0): 0.931
PAICS.R.C Average (Norm_10, normalized to Norm_0): 0.957
PAK1.R.V Average (Norm_10, normalized to Norm_0): 0.905
PAK4.R.V Average (Norm_10, normalized to Norm_0): 1.019
PAK_pS474_S602_S560.R.V Average (Norm_10, normalized to Norm_0): 1.098
PAK_pT423_T402.R.C Average (Norm_10, normalized to Norm_0): 1.015
PAR.R.C Average (Norm_10, normalized to Norm_0): 1.104
PARG.R.C Average (Norm_10, normalized to Norm_0): 1.019
PARP.R.V Average (Norm_10, normalized to Norm_0): 1.149
PAX6.R.V Average (Norm_10, normalized to Norm_0): 0.956
PAX8.R.C Average (Norm_10, normalized to Norm_0): 1.011
PCNA.M.C Average (Norm_10, normalized to Norm_0): 0.988
PD.1.R.V Average (Norm_10, normalized to Norm_0): 0.998
PD.L1.R.C Average (Norm_10, normalized to Norm_0): 0.960
PDH.M.V Average (Norm_10, normalized to Norm_0): 0.958
PDK1.R.V Average (Norm_10, normalized to Norm_0): 1.058
PDK1_pS241.R.V Average (Norm_10, normalized to Norm_0): 0.934
PEA.15.R.V Average (Norm_10, normalized to Norm_0): 1.020
PEA.15_pS116.R.V Average (Norm_10, normalized to Norm_0): 0.996
PERK.R.V Average (Norm_10, normalized to Norm_0): 1.061
PHGDH.R.C Average (Norm_10, normalized to Norm_0): 0.964
PHLPP.R.V Average (Norm_10, normalized to Norm_0): 1.190
PI3K.p85.R.C Average (Norm_10, normalized to Norm_0): 1.002
PI3K.p110.a.R.C Average (Norm_10, normalized to Norm_0): 0.864
PI3K.p110.b.M.C Average (Norm_10, normalized to Norm_0): 0.990
PKA.a.R.V Average (Norm_10, normalized to Norm_0): 0.941
PKC.a.b.II_pT638_T641.R.V Average (Norm_10, normalized to Norm_0): 0.894
PKC.b.II_pS660.R.V Average (Norm_10, normalized to Norm_0): 0.986
PKCa.R.V Average (Norm_10, normalized to Norm_0): 1.017
PKM2.R.C Average (Norm_10, normalized to Norm_0): 1.046
PLC.gamma1.R.V Average (Norm_10, normalized to Norm_0): 1.192
PLC.gamma1_pS1248.R.V Average (Norm_10, normalized to Norm_0): 1.153
PLC.gamma2_pY759.R.V Average (Norm_10, normalized to Norm_0): 1.003
PLK1.R.C Average (Norm_10, normalized to Norm_0): 0.886
PMS2.R.V Average (Norm_10, normalized to Norm_0): 1.014
PR.R.V Average (Norm_10, normalized to Norm_0): 0.988
PRAS40.M.C Average (Norm_10, normalized to Norm_0): 1.046
PRAS40_pT246.R.V Average (Norm_10, normalized to Norm_0): 1.016
PRC1_pT481.R.C Average (Norm_10, normalized to Norm_0): 1.014
Patched.R.C Average (Norm_10, normalized to Norm_0): 0.952
Paxillin.R.C Average (Norm_10, normalized to Norm_0): 0.862
Pdcd4.R.C Average (Norm_10, normalized to Norm_0): 0.987
Porin.M.V Average (Norm_10, normalized to Norm_0): 1.053
p21.R.C Average (Norm_10, normalized to Norm_0): 0.934
p27_pT157.R.C Average (Norm_10, normalized to Norm_0): 1.162
p27_pT198.R.V Average (Norm_10, normalized to Norm_0): 1.113
